One series has as its system A. donax explants. The series can be described thus: Phosphinothricin selection of explants on solid selective medium. The settings on record: 10 mg/l. The format is cell-based, Arundo donax L. Here is the method: Cross-sectional segment of immature A. donax inflorescence were prepared and cultivated as described in Example 2. The totipotent tissue was cocultivated with Agrobacterium tumefaciens carrying plasmid pMSF3022, which carried the bar gene for positive selection in plant cells. The gene confers resistance to the antibiotic/herbicide phosphinothricin.
Cocultivation was carried out in 6 ml. of liquid primary culture medium for four days in the dark at room temperature. Explants were then rinsed with liquid medium and placed on solid selective and non-selective control medium containing the antibiotic/herbicide phosphinothricine at 10 mg/l. All medium contained tidarcillin at 400 mg/l to eliminate residual A. tumefaciens. Controls include explants incubated without A. tumefaciens. […] This can be contrasted with control explants (which were not contacted with A. tumefaciens) that were killed by 10 mg/l of phosphinothricin (FIG. 3A). Also shown are control explants that have developed callus in the absence of phosphinothricin (FIG. 3B), and cocultivated explants that have developed callus in the absence of phosphinothricin (FIG. 3D).

Another series relates to A. donax plants (roots). In words: Trichloroethene challenge of cloned plants in phytoreactor. Type of series: in vivo, Arundo donax L. The settings on record: 0.25 mM in hydroponic solution; after recovery period of 3 to 4 weeks. Here is the method: Sustained titopotent cultures of A donax were grown as described in Example 2, and cloned plants derived from the titopotent tissues were established in a standard liquid hydroponic solution in plastic tubs (Shown in FIG. 4A). In one phytoreactor tub, trichloroethene (trichloroethylene) was added to a concentration of 0.25 mM. This was believed to be a high concentration of the organic material, because the allowable EPA concentration is 0.005 mg/l.

Turning to `CP(=O)(O)CC[C@H](N)C(=O)O` [phosphinothricin], the “effect on explants cocultivated with Agrobacterium tumefaciens (bar gene)” value with A. donax explants (cocultivated explants) is “development of herbicide resistant embryogenic tissue”. Also, in the series with A. donax explants (control explants not contacted with A. tumefaciens), the “effect on control explants” value is listed as “killed”.

In the case of `ClC=C(Cl)Cl` [trichloroethene], the “state of roots after challenge” value in the series on A. donax plants (roots) is listed as “fully recovered”.

The record behind these values is patent US20020166149A1, “Sustained totipotent regenerable tissue culture of Arundo donax (Giant Reed) and totipotent tissue and plants produced therefrom” (priority 2001, published 2002).
